Experimental data: patent US20240417405A1, “Substituted Spiro Derivatives” (Janssen Pharmaceutica NV, priority 2021, published 2024)

What was measured:
MOLM14 cells = assay: Proliferation assay, spheroid-like growth, MOLM14 (MLL-AF9 rearranged); type: cell-based, human; settings: Homo sapiens, MOLM-14, 192 h, 8 days, confluence as measure of spheroid size, read-out: spheroid assay_OneTime MOLM14 IC50
How it was run: (§1)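 200 MOLM14 or 300 KO-52 cells/well, ultra-low attachment, compound dilutions, DMSO 0.3%; 8 d, 37 °C, 5% CO2. Read: live-cell imaging confluence (spheroid size) day 8. Absolute IC50, min 0%/max 100% fixed, variable slope.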

KO-52 cells = assay: Proliferation assay, spheroid-like growth, KO-52 (MLL wildtype control cell line); type: cell-based, human; settings: Homo sapiens, 192 h, KO-52 control cells, 8 days, confluence as measure of spheroid size; read-out: spheroid assay_OneTime KO-52 IC50
How it was run: as §1

[1] = biological target: T1, menin/MLL (terbium chelate-labeled menin, FITC-MBM1 peptide) (Homo sapiens, UniProt O00255, T541A); assay: Menin/MLL homogenous time-resolved fluorescence (HTRF) assay; type: binding; settings: 30 min incubation
T1 construct: Menin (a.a 1-610-6xhis tag)
T1 sequence (O00255 with tags, fused parts or gaps T541A): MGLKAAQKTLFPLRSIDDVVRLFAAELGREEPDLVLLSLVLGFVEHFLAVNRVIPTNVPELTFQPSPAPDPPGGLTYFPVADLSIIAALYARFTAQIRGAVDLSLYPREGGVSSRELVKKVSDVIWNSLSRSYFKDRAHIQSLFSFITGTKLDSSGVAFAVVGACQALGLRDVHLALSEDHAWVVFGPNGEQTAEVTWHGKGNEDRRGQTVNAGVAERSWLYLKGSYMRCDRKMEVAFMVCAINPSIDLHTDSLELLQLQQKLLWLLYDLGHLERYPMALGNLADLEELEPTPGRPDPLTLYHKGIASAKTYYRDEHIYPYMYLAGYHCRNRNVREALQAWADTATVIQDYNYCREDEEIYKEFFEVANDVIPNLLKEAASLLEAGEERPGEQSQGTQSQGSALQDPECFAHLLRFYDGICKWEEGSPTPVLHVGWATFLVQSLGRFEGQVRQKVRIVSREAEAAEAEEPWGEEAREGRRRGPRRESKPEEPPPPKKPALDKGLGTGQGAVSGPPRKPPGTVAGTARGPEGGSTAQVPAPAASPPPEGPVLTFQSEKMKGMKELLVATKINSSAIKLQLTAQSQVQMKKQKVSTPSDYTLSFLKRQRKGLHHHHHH
How it was run: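 Tb-cryptate menin (1-610, 6xHis) 200 pM + cmpd, 30 min RT; + FITC-MBM1 75 nM, 15 min RT. 40 mM Tris pH 7.5, 50 mM NaCl, 1 mM DTT, 0.05% Pluronic F-127, 0.5% DMSO. HTRF 520/490; 11-pt 4-fold from 10 μM; IC50 fit.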

Row | Structure (SMILES) | IC50 (MOLM14 cells) [nM] | IC50 [1] [nM] | IC50 (KO-52 cells) [nM]
1 | CO[C@@H]1CCN([C@H]2C[C@@H]([C@@H](C(C)C)N3CC4(CCN(c5ncnnc5Oc5ccc(F)cc5-c5cncnc5C5CC5)C4)C3)C2)C1 (single isomer, unassigned) [Compound 211] | 3 | 0.1 | > 15000
2 | CC(C)[C@H]([C@H]1C[C@@H](N2C[C@H](O)C3(CCC3)C2)C1)N1CC2(CCN(c3ncnnc3Oc3ccc(F)cc3-c3cncnc3C3CC3)C2)C1 (single isomer, unassigned) [Compound 214] | < 2 | 0.1 | 3630
3 | CC(C)[C@H]([C@H]1C[C@@H](N2C[C@@H](O)C3(CCC3)C2)C1)N1CC2(CCN(c3ncnnc3Oc3ccc(F)cc3-c3cncnc3C3CC3)C2)C1 (single isomer, unassigned) [Compound 215] | 2 | 0.1 | 7940
4 | CC(C)[C@H]([C@H]1C[C@@H](N2CCC3(CC2)COC3)C1)N1CC2(CCN(c3ncnnc3Oc3ccc(F)cc3-c3cncnc3C3CC3)C2)C1 (single isomer, unassigned) [Compound 231] | 7 | 0.1 | 5520
5 | CC(C)[C@H]([C@H]1C[C@@H](N2CCC3(CCO3)CC2)C1)N1CC2(CCN(c3ncnnc3Oc3ccc(F)cc3-c3cncnc3C3CC3)C2)C1 (single isomer, unassigned) [Compound 232] | 7 | 0.1 | 1800
6 | CO[C@H]1[C@@H]2CN([C@H]3C[C@@H]([C@@H](C(C)C)N4CC5(CCN(c6ncnnc6Oc6ccc(F)cc6-c6cncnc6C6CC6)C5)C4)C3)C[C@@H]21 (single isomer, unassigned) [Compound 233] | 2 | 0.1 | 840
7 | CC(C)[C@H]([C@H]1C[C@@H](N2C[C@H]3C[C@@H]2CO3)C1)N1CC2(CCN(c3ncnnc3Oc3ccc(F)cc3-c3cncnc3C3CC3)C2)C1 (single isomer, unassigned) [Compound 234] | 9 | 0.1 | 6280
8 | COC1CN([C@H]2C[C@@H]([C@@H](C(C)C)N3CC4(CCN(c5ncnnc5Oc5ccc(F)cc5-c5cncnc5C5CC5)C4)C3)C2)CC1OC (single isomer, unassigned) [Compound 236] | 4 | 0.2 | 2250
9 | COC1CN([C@H]2C[C@H]([C@@H](C(C)C)N3CC4(CCN(c5ncnnc5Oc5ccc(F)cc5-c5cncnc5C5CC5)C4)C3)C2)CC1OC (single isomer, unassigned) [Compound 237] | 36 | 0.2 | 7900
10 | CC(C)[C@H]([C@H]1C[C@@H](N2CC[C@H](F)C2)C1)N1CC2(CCN(c3ncnnc3Oc3ccc(F)cc3-c3cncnc3C3CC3)C2)C1 (single isomer, unassigned) [Compound 238] | 2 | 0.1 | 7170
11 | CC(C)[C@H]([C@H]1C[C@H](N2CC[C@H](F)C2)C1)N1CC2(CCN(c3ncnnc3Oc3ccc(F)cc3-c3cncnc3C3CC3)C2)C1 (single isomer, unassigned) [Compound 239] | 16 | 0.3 | 2810
12 | CC(C)[C@H]([C@H]1C[C@@H](N(C)CCCS(C)(=O)=O)C1)N1CC2(CCN(c3ncnnc3Oc3ccc(F)cc3-c3cncnc3C3CC3)C2)C1 (single isomer, unassigned) [Compound 242] | 8 | 0.1 | 12200
13 | CC(C)[C@H]([C@H]1C[C@@H](N2CC(C(=O)N(C)C)C2)C1)N1CC2(CCN(c3ncnnc3Oc3ccc(F)cc3-c3cncnc3C3CC3)C2)C1 (single isomer, unassigned) [Compound 243] | 580 | 2.5 | > 15000
14 | CC(C)[C@@H]([C@H]1C[C@H](N2C[C@H]3COC[C@H]3C2)C1)N1CC2(CCN(c3ncnnc3Oc3ccc(F)cc3-c3cncnc3C3CC3)C2)C1 (single isomer, unassigned) [Compound 245] | 460 | 0.6 | 8940
15 | CC(C)[C@H]([C@H]1C[C@@H](N2C[C@@H]3[C@H](C2)[C@H]3C(=O)N(C)C)C1)N1CC2(CCN(c3ncnnc3Oc3ccc(F)cc3-c3cncnc3C3CC3)C2)C1 (single isomer, unassigned) [Compound 248] | 4 | 0.1 | 1460
16 | CC(C)[C@@H]([C@H]1C[C@@H](N2CCCCC2)C1)N1CC2(CCN(c3ncnnc3Oc3ccc(F)cc3-c3nnccc3C3CC3)C2)C1 (single isomer, unassigned) [Compound 250] | 8 | 0.1 | 940
17 | CC(C)[C@@H]([C@H]1C[C@@H](N2CCC3(CCO3)CC2)C1)N1CC2(CCN(c3ncnnc3Oc3ccc(F)cc3-c3nnccc3C3CC3)C2)C1 (single isomer, unassigned) [Compound 251] | 7 | 0.2 | 1240

Continued, in another order:

Row | IC50 (MOLM14 cells) [nM] | IC50 [1] [nM] | Structure (SMILES) | IC50 (KO-52 cells) [nM]
18 | 270 | 12.7 | CC(C)[C@H]([C@H]1C[C@@H](N2CCC3(CCO3)CC2)C1)N1CC2(CCN(c3ncnnc3Oc3ccc(F)cc3-c3nnccc3C3CC3)C2)C1 (single isomer, unassigned) [Compound 252] | > 15000
19 | 10 | 0.1 | CC(C)[C@@H]([C@H]1C[C@@H](N2CCC3(CC2)COC3)C1)N1CC2(CCN(c3ncnnc3Oc3ccc(F)cc3-c3nnccc3C3CC3)C2)C1 (single isomer, unassigned) [Compound 253] | 1620
20 | 16 | 0.1 | CC(C)[C@@H]([C@H]1C[C@@H](N2CCC3(COC3)C2)C1)N1CC2(CCN(c3ncnnc3Oc3ccc(F)cc3-c3nnccc3C3CC3)C2)C1 (single isomer, unassigned) [Compound 254] | > 15000
21 | 920 | 4.7 | CC(C)[C@H]([C@H]1C[C@@H](N2CCC3(COC3)C2)C1)N1CC2(CCN(c3ncnnc3Oc3ccc(F)cc3-c3nnccc3C3CC3)C2)C1 (single isomer, unassigned) [Compound 255] | > 15000
22 | 5 | 0.2 | CO[C@H]1CCCN([C@H]2C[C@@H]([C@H](C(C)C)N3CC4(CCN(c5ncnnc5Oc5ccc(F)cc5-c5nnccc5C5CC5)C4)C3)C2)C1 (single isomer, unassigned) [Compound 256] | > 15000
23 | 6 | 0.1 | CO[C@@H]1CCN([C@H]2C[C@@H]([C@H](C(C)C)N3CC4(CCN(c5ncnnc5Oc5ccc(F)cc5-c5nnccc5C5CC5)C4)C3)C2)C1 (single isomer, unassigned) [Compound 257] | > 15000
24 | 4 | 0.1 | CC(C)[C@@H]([C@H]1C[C@@H](N2C[C@H]3COC[C@H]3C2)C1)N1CC2(CCN(c3ncnnc3Oc3ccc(F)cc3-c3nnccc3C3CC3)C2)C1 (single isomer, unassigned) [Compound 258] | 490
25 | 94 | 0.4 | CC(C)[C@@H]([C@H]1C[C@H](N2C[C@H]3COC[C@H]3C2)C1)N1CC2(CCN(c3ncnnc3Oc3ccc(F)cc3-c3nnccc3C3CC3)C2)C1 (single isomer, unassigned) [Compound 259] | 4760
26 | 6 | 0.1 | COC1CN([C@H]2C[C@@H]([C@H](C(C)C)N3CC4(CCN(c5ncnnc5Oc5ccc(F)cc5-c5nnccc5C5CC5)C4)C3)C2)C1 (single isomer, unassigned) [Compound 260] | 3250
27 | 19 | 0.16 | CC(C)[C@@H]([C@H]1C[C@@H](N(C)C)C1)N1CC2(CCN(c3ncnnc3Oc3ccc(F)cc3-c3nnccc3C3CC3)C2)C1 (single isomer, unassigned) [Compound 261a] | > 15000
28 | 83 | 0.3 | CC(C)[C@@H]([C@H]1C[C@H](N(C)C)C1)N1CC2(CCN(c3ncnnc3Oc3ccc(F)cc3-c3nnccc3C3CC3)C2)C1 (single isomer, unassigned) [Compound 261b] | 3070
